The values below come from EP0020955A1, “Geometrical isomers of 4,4-dimethyl-1-phenyl-2-(1,2,4-triazole-1-yl)-1-penten-3-ols, process for their preparation and medicament containing them” (BAYER AG, priority 1979, dated 1981).

The test system of one experiment is Trichophyton mentagr. Kind of experiment: Antifungal in vitro activity, agar dilution test (MIC). The experiment is classed as cell-based, Trichophyton mentagrophytes. To be noted: Kimmig agar, inoculum 2 - 5 x 10^3 fungal particles per spot, dermatophytes 96 h, 27°C. The text has this: (§1) Versuchsbeschreibung: • Die in-vitro-Wirksamkeit - gemessen anhand der minimalen Hemmkonzentration - wurde im Agarverdünnungstest ermittelt. Auf Serien von Kimmig - Agarplatten, die die entsprechenden Wirkstoffkonzentrationen im Agar gelöst enthielten, wurden mit Hilfe eines automatischen Beimpfungsgerätes Proben der Keimsuspesionen tropfenförmig aufgebracht. Das Inokulum betrug 2 - 5 x 10^3 Pilzpartikel pro Impfpunkt. Im Falle der Hefen lag die Bebrütungsdauer bei 24 Stunden, im Falle der Dermatophyten bei 96 Stunden; Bebrütungstemperatur 27°C.
A general note: Agar dilution tests growth on a series of plates holding different concentrations.

The subject of a further experiment is Aspergillus fumigatus. The experiment is described as above. It is filed as cell-based. As to conditions: Kimmig agar, inoculum 2 - 5 x 10^3 fungal particles per spot, 27°C.
Text: as §1

The test system of the next experiment is Candida albicans. The experiment is described as above. The experiment is classed as cell-based. To be noted: Kimmig agar, inoculum 2 - 5 x 10^3 fungal particles per spot, yeasts 24 h, 27°C.
Text: as §1

For the next experiment, the system named is Microsporon canis. The description is as above. The experiment is classed as cell-based. As to conditions: Kimmig agar, inoculum 2 - 5 x 10^3 fungal particles per spot, dermatophytes 96 h, 27°C.
Text: as §1

Another experiment relates to Torulopsis glabrata. The description is as above. It is filed as cell-based. As to conditions: Kimmig agar, inoculum 2 - 5 x 10^3 fungal particles per spot, yeasts 24 h, 27°C.
Text: as §1

Another experiment deals with Candida-Zellen. The experiment is described as follows: Antimicrobial in vivo activity (oral) in mouse candidosis. Details: species or system Mäuse vom Typ SPF-CF. As to conditions: mice infected i.v. with Candida; 12,5 bis 25mg/kg 2 x daily over 5 days oral; survivors on day 6 p.i. How it is done:
Mäuse vom Typ SPF-CF werden intravenös mit 1-2 x 10^6 1 logarithmisch wachsenden Candida-Zellen, suspendiert in physiologischer Kochsalzlösung, infiziert. Die Tiere werden mit Dosierungen von 12,5 bis 25mg/kg Körpergewicht 2 x täglich über 5 Tage oral behandelt.
Unbehandelte Tiere starben 3 bis 6 Tage post infektionem. Die Ueberlebensrate am 6.Tag post infektionem betrug bei unbehandelten Kontrolltieren etwa 5 %.

In experiment [1] the test system is Trichophyton mentagrophytes. The experiment is described as follows: Antimicrobial in vivo activity (local and oral) in experimental guinea pig trichophytosis. Also on record: species or system Meerschweinchen der Rasse Pirbright-white. To be noted: for Wirkung lokale Therapie (1%-ige Lösung): local, 1 x daily from day 3 p.i., 1% solution in Dimethylsulfoxid : Glycerin = 1 : 4. From the text: Versuchsbeschreibung: • Weiße Meerschweinchen der Rasse Pirbright-white werden auf dem geschorenen, nicht skarifizierten Rücken mit einer Mikro- und Makrokonidien-Suspension von Trichophyton mentagrophytes infiziert. Bei unbehandelten Tieren entwickelt sich innerhalb 12 Tagen p.i. das typische Bild einer Dermatophytose mit Rötung, Schuppung und Haarausfall bis zum totalen Integument-Defekt an der Infektionsstelle. […]

Converted amounts (≈) assume the structure as drawn. Some results are limits rather than exact numbers.

As for “1-(4-Chlorphenyl)-4,4-dimethyl-2-(1,2,4-triazol-1-yl)-1-penten-3-ol [geometrisches Isomerengemisch (bekannt)]”, the “Minimale Hemmkonzentration” value was below 1 µg/mL with Trichophyton mentagr.; 8 µg/mL in the experiment with Aspergillus fumigatus; 8 µg/mL with Candida albicans; 8 µg/mL in the experiment with Microsporon canis; 4 µg/mL in the experiment with Torulopsis glabrata. Besides, in the experiment with Candida-Zellen, the Wirkung entry is recorded as “+++ (Wirkung = ≥60% Ueberlebende am 6.Tag p.i.)”. For the same molecule, the “Wirkung lokale Therapie (1%-ige Lösung)” value in experiment [1] is on record as “schwache Wirkung”.
For `CC(C)(C)C(O)C(=Cc1ccc(Cl)cc1)n1cncn1` (single isomer, unassigned) [Form A, 1-(4-Chlorphenyl)-4,4-dimethyl-2-(1,2,4-triazol-1-yl)-1-penten-3-ol], the “Minimale Hemmkonzentration” value in the experiment on Trichophyton mentagr. is 4 µg/mL; with Aspergillus fumigatus, 32 µg/mL; in the experiment on Candida albicans, 4 µg/mL; in the experiment on Microsporon canis, 32 µg/mL. Besides, in the experiment on Torulopsis glabrata (Nakaseomyces glabratus, 24 h, read-out: Minimale Hemmkonzentration), the MIC stood at 1 µg/mL (≈ 3.43 µM). Also, the Wirkung result in the experiment on Candida-Zellen is recorded as “kW (keine Wirkung)”.
Turning to `CC(C)(C)C(O)C(=Cc1ccc(Cl)cc1)n1cncn1` (single isomer, unassigned) [Form B(1), 1-(4-Chlorphenyl)-4,4-dimethyl-2-(1,2,4-triazol-1-yl)-1-penten-3-ol], the “Minimale Hemmkonzentration” value in the experiment with Trichophyton mentagr. was below 1 µg/mL; with Aspergillus fumigatus it was 1 to 4 µg/mL; with Candida albicans, below 1 µg/mL; with Microsporon canis, below 1 µg/mL; in the experiment with Torulopsis glabrata it was below 1 µg/mL. The Wirkung entry in the experiment with Candida-Zellen is “+++++ (sehr gute Wirkung = >95% Ueberlebende am 6.Tag p.i.)”. Besides, the “Wirkung lokale Therapie (1%-ige Lösung)” value in experiment [1] is “sehr gute Wirkung”. In addition, the “Wirkung orale Therapie (50mg/kg/die)” value in experiment [1] (oral, 1 x daily from day of infection, aqueous solution) is reported as “sehr gute Wirkung”.
